Assay results taken from patent publication US11814392B2, “Chromenopyridine-based compounds and methods of making and use thereof” (Rosalind Franklin University of Medicine and Science, priority 2020, dated 2023).

Tests used:
NCI-H226 = assay: NCI 60 five-dose screening, NCI-H226
Procedure: (§1) The one-dose and five-dose experiments were conducted according to standard NCI protocols.
(§2) The human tumor cell lines of the cancer screening panel are grown in RPMI 1640 medium containing 5% fetal bovine serum and 2 mM L-glutamine. For a typical screening experiment, cells are inoculated into 96 well microtiter plates in 100 μL at plating densities ranging from 5,000 to 40,000 cells/well depending on the doubling time of individual cell lines. After cell inoculation, the microtiter plates are incubated at 37° C., 5% CO2, 95% air and 100% relative humidity for 24 h prior to addition of experimental drugs.
(§3) After 24 h, two plates of each cell line are fixed in situ with TCA, to represent a measurement of the cell population for each cell line at the time of drug addition (Tz). Experimental drugs are solubilized in dimethyl sulfoxide at 400-fold the desired final maximum test concentration and stored frozen prior to use. […]
(§4) Following drug addition, the plates are incubated for an additional 48 h at 37° C., 5% CO2, 95% air, and 100% relative humidity. […] Bound stain is subsequently solubilized with 10 mM trizma base, and the absorbance is read on an automated plate reader at a wavelength of 515 nm. […] Using the seven absorbance measurements [time zero, (Tz), control growth, (C), and test growth in the presence of drug at the five concentration levels (Ti)], the percentage growth is calculated at each of the drug concentrations levels. Percentage growth inhibition is calculated as: [(Ti−Tz)/(C−Tz)]×100 for concentrations for which Ti>/=Tz [(Ti−Tz)/Tz]×100 for concentrations for which Ti<Tz.
(§5) Three dose response parameters are calculated for each experimental agent. […] The drug concentration resulting in total growth inhibition (TGI) is calculated from Ti=Tz. […] Values are calculated for each of these three parameters if the level of activity is reached; however, if the effect is not reached or is exceeded, the value for that parameter is expressed as greater or less than the maximum or minimum concentration tested.

K-562 = assay: NCI 60 five-dose screening, K-562; conditions: Homo sapiens, K562, 48 h
Procedure: (§6) The National Cancer Institute's Developmental Therapeutic preclinical 60 human cancer cell lines were used for an in vitro screen. […] The one-dose and five-dose experiments were conducted according to standard NCI protocols.
(§7) The human tumor cell lines of the cancer screening panel are grown in RPMI 1640 medium containing 5% fetal bovine serum and 2 mM L-glutamine. For a typical screening experiment, cells are inoculated into 96 well microtiter plates in 100 μL at plating densities ranging from 5,000 to 40,000 cells/well depending on the doubling time of individual cell lines. […]
as §4
(§8) Three dose response parameters are calculated for each experimental agent. […]

IGROV1 = assay: NCI 60 five-dose screening, IGROV1
Procedure: as §6, §2
(§9) After 24 h, two plates of each cell line are fixed in situ with TCA, to represent a measurement of the cell population for each cell line at the time of drug addition (Tz). […]
as §4, §5

SR = assay: NCI 60 five-dose screening, SR; conditions: Homo sapiens, 48 h
Procedure: as §6, §7, §4, §8

SK-MEL-2 = assay: NCI 60 five-dose screening, SK-MEL-2
Procedure: as §6, §2, §9, §4, §5

786.0 = assay: NCI 60 five-dose screening, 786.0
Procedure: as §1, §2, §3, §4, §5

BT-549 = assay: NCI 60 five-dose screening, BT-549
Procedure: as §6, §2, §9, §4, §5

OVCAR-5 = assay: NCI 60 five-dose screening, OVCAR-5
Procedure: as §6, §2, §9, §4, §5

HOP-92 = assay: NCI 60 five-dose screening, HOP-92
Procedure: as §1, §2, §3, §4, §5

ACHN = assay: NCI 60 five-dose screening, ACHN; conditions: 48 h
Procedure: as §1, §2, §3, §4, §5

UACC-62 = assay: NCI 60 five-dose screening, UACC-62
Procedure: as §6, §2, §9, §4, §5

RXF 393 = assay: NCI 60 five-dose screening, RXF 393
Procedure: as §1, §2
After 24 h, two plates of each cell line are fixed in situ with TCA, to represent a measurement of the cell population for each cell line at the time of drug addition (Tz). Experimental drugs are solubilized in dimethyl sulfoxide at 400-fold the desired final maximum test concentration and stored frozen prior to use. At the time of drug addition, an aliquot of frozen concentrate is thawed and diluted to twice the desired final maximum test concentration with complete medium containing 50 μg/ml gentamicin. Additional four, 10-fold or ½ log serial dilutions are made to provide a total of five drug concentrations plus control. Aliquots of 100 μl of these different drug dilutions are added to the appropriate microtiter wells already containing 100 μl of medium, resulting in the required final drug concentrations.
Following drug addition, the plates are incubated for an additional 48 h at 37° C., 5% CO2, 95% air, and 100% relative humidity. For adherent cells, the assay is terminated by the addition of cold TCA. Cells are fixed in situ by the gentle addition of 50 μl of cold 50% (w/v) TCA (final concentration, 10% TCA) and incubated for 60 minutes at 4° C. […] Bound stain is subsequently solubilized with 10 mM trizma base, and the absorbance is read on an automated plate reader at a wavelength of 515 nm. […] Using the seven absorbance measurements [time zero, (Tz), control growth, (C), and test growth in the presence of drug at the five concentration levels (Ti)], the percentage growth is calculated at each of the drug concentrations levels. Percentage growth inhibition is calculated as: [(Ti−Tz)/(C−Tz)]×100 for concentrations for which Ti>/=Tz [(Ti−Tz)/Tz]×100 for concentrations for which Ti<Tz.
as §5

U251 = assay: NCI 60 five-dose screening, U251
Procedure: as §6, §2, §9, §4, §5

NCI-H460 = assay: NCI 60 five-dose screening, NCI-H460
Procedure: as §6, §2, §9, §4, §5

EKVX = assay: NCI 60 five-dose screening, EKVX; conditions: 48 h
Procedure: as §6, §2, §9, §4, §5

SNB-19 = assay: NCI 60 five-dose screening, SNB-19
Procedure: as §6, §2, §9, §4, §5

SNB-75 = assay: NCI 60 five-dose screening, SNB-75
Procedure: as §6, §2, §9, §4, §5

A549/ATCC = assay: NCI 60 five-dose screening, A549/ATCC; format: cell-based, human; conditions: A549/ATCC (Non-small cell Lung), 48 h
HOP-62 = assay: NCI 60 five-dose screening, HOP-62
Procedure: as §1, §2, §3, §4, §5

UO-31 = assay: NCI 60 five-dose screening, UO-31
Procedure: as §6, §2, §9, §4, §5

OVCAR-3 = assay: NCI 60 five-dose screening, OVCAR-3; format: cell-based, human
SK-MEL-28 = assay: NCI 60 five-dose screening, SK-MEL-28
Procedure: as §6, §2, §9, §4, §5

OVCAR-4 = assay: NCI 60 five-dose screening, OVCAR-4
Procedure: as §6, §2, §9, §4, §5

OVCAR-8 = assay: NCI 60 five-dose screening, OVCAR-8
Procedure: as §1, §2, §3, §4, §5

SK-MEL-5 = assay: NCI 60 five-dose screening, SK-MEL-5
Procedure: as §6, §2, §9, §4, §5

[1] = RXF 393 (Renal Cancer), five-dose, 48 h

For COc1ccc(SC2c3cc(OC)c(OC)cc3Oc3nc(N)c(C#N)c(N)c32)cc1 (stereo not shown) [Compound 1, 2,4-diamino-7,8-dimethoxy-5-((4-methoxyphenyl)thio)-5H-chromeno[2,3-b]pyridine-3-carbonitrile], the GI50 (NCI-H226; Homo sapiens, NCI-H226, 48 h) was 1.37 µM, the CC50 (NCI-H226; Homo sapiens, NCI-H226, 48 h, read-out: LC50) was 5.23 µM and the TGI (NCI-H226; NCI-H226 (Non-small cell Lung), five-dose, 48 h) was 2.68 µM. It also gave a GI50 (K-562) of 0.44 µM, a CC50 (K-562; read-out: LC50) of over 100 µM and a GI50 (IGROV1; Homo sapiens, IGROV-1, 48 h) of 0.76 µM. For the same molecule, the CC50 (IGROV1; Homo sapiens, IGROV-1, 48 h, read-out: LC50) was 6.42 µM, the TGI (IGROV1; IGROV1 (Ovarian Cancer), five-dose, 48 h) was 2.37 µM and the GI50 (SR) was 0.27 µM. It also gave a CC50 (SR; read-out: LC50) of over 100 µM, a GI50 (SK-MEL-2; Homo sapiens, SK-MEL-2, 48 h) of 1.37 µM and a CC50 (SK-MEL-2; Homo sapiens, SK-MEL-2, 48 h, read-out: LC50) of 5.76 µM. It also gave a TGI (SK-MEL-2; SK-MEL-2 (Melanoma), five-dose, 48 h) of 2.80 µM, a TGI (786.0; 786.0 (Renal Cancer), five-dose, 48 h) of 1.73 µM and a GI50 (786.0; Homo sapiens, 786-0, 48 h) of 0.49 µM. It also gave a CC50 (786.0; Homo sapiens, 786-0, 48 h, read-out: LC50) of 4.2 µM, a TGI (BT-549; BT-549 (Breast Cancer), five-dose, 48 h) of 2.19 µM and a GI50 (BT-549; Homo sapiens, BT-549, 48 h) of 1.02 µM. For the same molecule, the CC50 (BT-549; Homo sapiens, BT-549, 48 h, read-out: LC50) was 4.72 µM, the GI50 (OVCAR-5; Homo sapiens, OVCAR-5, 48 h) was 1.75 µM and the CC50 (OVCAR-5; Homo sapiens, OVCAR-5, 48 h, read-out: LC50) was 6.66 µM. It also gave a TGI (OVCAR-5; OVCAR-5 (Ovarian Cancer), five-dose, 48 h) of 3.39 µM, a TGI (HOP-92; HOP-92 (Non-small cell Lung), five-dose, 48 h) of 2.72 µM and a GI50 (HOP-92; Homo sapiens, HOP-92, 48 h) of 1.24 µM. For the same molecule, the CC50 (HOP-92; Homo sapiens, HOP-92, 48 h, read-out: LC50) was 5.99 µM, the TGI (ACHN; ACHN (Renal Cancer), five-dose) was 3.12 µM and the GI50 (ACHN; Homo sapiens, ACHN) was 1.74 µM. It also gave a CC50 (ACHN; Homo sapiens, ACHN, read-out: LC50) of 5.58 µM, a GI50 (UACC-62; Homo sapiens, UACC-62, 48 h) of 0.44 µM and a CC50 (UACC-62; Homo sapiens, UACC-62, 48 h, read-out: LC50) of 4.3 µM. The TGI (UACC-62; UACC-62 (Melanoma), five-dose, 48 h) was 1.73 µM, the GI50 (RXF 393; Homo sapiens, RXF 393, 48 h, RXF 393 (Renal Cancer), five-dose, 48 h) was 0.45 µM and the CC50 (RXF 393; Homo sapiens, RXF 393, 48 h, read-out: LC50) was 4.52 µM. For the same molecule, the GI50 (RXF 393; [1]) was 0.74 µM, the TGI (RXF 393; [1]) was 2.01 µM and the GI50 (U251; Homo sapiens, U-251, 48 h) was 0.95 µM. The CC50 (U251; Homo sapiens, U-251, 48 h, read-out: LC50) was 4.83 µM, the TGI (U251; U251 (CNS Cancer), five-dose, 48 h) was 2.18 µM and the GI50 (NCI-H460; Homo sapiens, NCI-H460, 48 h) was 1.66 µM. It also gave a CC50 (NCI-H460; Homo sapiens, NCI-H460, 48 h, read-out: LC50) of over 100 µM, a TGI (NCI-H460; NCI-H460 (Non-small cell Lung), five-dose, 48 h) of 4.38 µM and a TGI (EKVX; EKVX (Non-small cell Lung), five-dose) of 3.34 µM. The GI50 (EKVX; Homo sapiens, EKVX) was 1.74 µM, the CC50 (EKVX; Homo sapiens, EKVX, read-out: LC50) was 6.42 µM and the GI50 (SNB-19; Homo sapiens, SNB-19, 48 h) was 1.32 µM. It also gave a CC50 (SNB-19; Homo sapiens, SNB-19, 48 h, read-out: LC50) of 5.3 µM, a TGI (SNB-19; SNB-19 (CNS Cancer), five-dose, 48 h) of 2.64 µM and a GI50 (SNB-75; Homo sapiens, SNB-75, 48 h) of 1.31 µM. It also gave a CC50 (SNB-75; Homo sapiens, SNB-75, 48 h, read-out: LC50) of 5.24 µM, a TGI (SNB-75; SNB-75 (CNS Cancer), five-dose, 48 h) of 2.62 µM and a TGI (A549/ATCC) of 3.84 µM. It also gave a GI50 (A549/ATCC; Homo sapiens) of 2.01 µM, a TGI (HOP-62; HOP-62 (Non-small cell Lung), five-dose, 48 h) of 3.09 µM and a GI50 (HOP-62; Homo sapiens, HOP-62, 48 h) of 1.7 µM. It also gave a CC50 (HOP-62; Homo sapiens, HOP-62, 48 h, read-out: LC50) of 5.61 µM, a GI50 (UO-31; Homo sapiens, UO-31, 48 h) of 1.34 µM and a CC50 (UO-31; Homo sapiens, UO-31, 48 h, read-out: LC50) of 5.11 µM. For the same molecule, the TGI (UO-31; UO-31 (Renal Cancer), five-dose, 48 h) was 2.61 µM, the CC50 (OVCAR-3; Homo sapiens, OVCAR-3, 48 h, read-out: LC50) was 5.03 µM and the GI50 (OVCAR-3; Homo sapiens, OVCAR-3 (Ovarian Cancer), five-dose, 48 h) was 1.06 µM. The TGI (OVCAR-3; OVCAR-3 (Ovarian Cancer), five-dose, 48 h) was 2.31 µM, the GI50 (SK-MEL-28; Homo sapiens, SK-MEL-28, 48 h) was 1.47 µM and the CC50 (SK-MEL-28; Homo sapiens, SK-MEL-28, 48 h, read-out: LC50) was 5.78 µM. It also gave a TGI (SK-MEL-28; SK-MEL-28 (Melanoma), five-dose, 48 h) of 2.91 µM, a GI50 (OVCAR-4; Homo sapiens, OVCAR-4, 48 h) of 1.33 µM and a CC50 (OVCAR-4; Homo sapiens, OVCAR-4, 48 h, read-out: LC50) of 5.59 µM. It also gave a TGI (OVCAR-4; OVCAR-4 (Ovarian Cancer), five-dose, 48 h) of 2.73 µM, a GI50 (OVCAR-8; Homo sapiens, OVCAR-8, 48 h) of 1.69 µM and a CC50 (OVCAR-8; Homo sapiens, OVCAR-8, 48 h, read-out: LC50) of 5.98 µM. It also gave a TGI (OVCAR-8; OVCAR-8 (Ovarian Cancer), five-dose, 48 h) of 3.18 µM, a GI50 (SK-MEL-5; Homo sapiens, SK-MEL-5, 48 h) of 1.5 µM and a CC50 (SK-MEL-5; Homo sapiens, SK-MEL-5, 48 h, read-out: LC50) of 5.33 µM. For the same molecule, the TGI (SK-MEL-5; SK-MEL-5 (Melanoma), five-dose, 48 h) was 2.82 µM.
